In patent publication US12624044B2, “SMARCA degraders and uses thereof” (Kymera Therapeutics, Inc., priority 2019, dated 2026):

Biological target: SMARCA2 (Homo sapiens, UniProt P51531)
Assay: MSD SMARCA2 degradation in NCI-H1299 cell line (24 h)
Format: cell-based
Parameters: HC: NCI-H1299 cells treated with DMSO; host or cells: NCI-H1299
Settings: for Dmax: NCI-H1299, NCI-H1299 cells; for DC50: NCI-H1299 cells, read-out: SMARCA2 MSD H1299 degradation 24 h: External Abs-DC50
Summary of the method: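 NCI-H1299 cells treated 24 h with a 3-fold, 9-point compound dilution series, then lysed in RIPA with protease inhibitor. SMARCA2 in lysate-coated MSD plates detected with rabbit anti-SMARCA2 (0.3 ug/ml) and SULFO-TAG secondary. Relative SMARCA2 level normalized between DMSO-treated H1299 cells and SMARCA2-negative A2780 cells; Dmax % binned A–D.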

Chain of SMARCA2 (P51531 whole entry): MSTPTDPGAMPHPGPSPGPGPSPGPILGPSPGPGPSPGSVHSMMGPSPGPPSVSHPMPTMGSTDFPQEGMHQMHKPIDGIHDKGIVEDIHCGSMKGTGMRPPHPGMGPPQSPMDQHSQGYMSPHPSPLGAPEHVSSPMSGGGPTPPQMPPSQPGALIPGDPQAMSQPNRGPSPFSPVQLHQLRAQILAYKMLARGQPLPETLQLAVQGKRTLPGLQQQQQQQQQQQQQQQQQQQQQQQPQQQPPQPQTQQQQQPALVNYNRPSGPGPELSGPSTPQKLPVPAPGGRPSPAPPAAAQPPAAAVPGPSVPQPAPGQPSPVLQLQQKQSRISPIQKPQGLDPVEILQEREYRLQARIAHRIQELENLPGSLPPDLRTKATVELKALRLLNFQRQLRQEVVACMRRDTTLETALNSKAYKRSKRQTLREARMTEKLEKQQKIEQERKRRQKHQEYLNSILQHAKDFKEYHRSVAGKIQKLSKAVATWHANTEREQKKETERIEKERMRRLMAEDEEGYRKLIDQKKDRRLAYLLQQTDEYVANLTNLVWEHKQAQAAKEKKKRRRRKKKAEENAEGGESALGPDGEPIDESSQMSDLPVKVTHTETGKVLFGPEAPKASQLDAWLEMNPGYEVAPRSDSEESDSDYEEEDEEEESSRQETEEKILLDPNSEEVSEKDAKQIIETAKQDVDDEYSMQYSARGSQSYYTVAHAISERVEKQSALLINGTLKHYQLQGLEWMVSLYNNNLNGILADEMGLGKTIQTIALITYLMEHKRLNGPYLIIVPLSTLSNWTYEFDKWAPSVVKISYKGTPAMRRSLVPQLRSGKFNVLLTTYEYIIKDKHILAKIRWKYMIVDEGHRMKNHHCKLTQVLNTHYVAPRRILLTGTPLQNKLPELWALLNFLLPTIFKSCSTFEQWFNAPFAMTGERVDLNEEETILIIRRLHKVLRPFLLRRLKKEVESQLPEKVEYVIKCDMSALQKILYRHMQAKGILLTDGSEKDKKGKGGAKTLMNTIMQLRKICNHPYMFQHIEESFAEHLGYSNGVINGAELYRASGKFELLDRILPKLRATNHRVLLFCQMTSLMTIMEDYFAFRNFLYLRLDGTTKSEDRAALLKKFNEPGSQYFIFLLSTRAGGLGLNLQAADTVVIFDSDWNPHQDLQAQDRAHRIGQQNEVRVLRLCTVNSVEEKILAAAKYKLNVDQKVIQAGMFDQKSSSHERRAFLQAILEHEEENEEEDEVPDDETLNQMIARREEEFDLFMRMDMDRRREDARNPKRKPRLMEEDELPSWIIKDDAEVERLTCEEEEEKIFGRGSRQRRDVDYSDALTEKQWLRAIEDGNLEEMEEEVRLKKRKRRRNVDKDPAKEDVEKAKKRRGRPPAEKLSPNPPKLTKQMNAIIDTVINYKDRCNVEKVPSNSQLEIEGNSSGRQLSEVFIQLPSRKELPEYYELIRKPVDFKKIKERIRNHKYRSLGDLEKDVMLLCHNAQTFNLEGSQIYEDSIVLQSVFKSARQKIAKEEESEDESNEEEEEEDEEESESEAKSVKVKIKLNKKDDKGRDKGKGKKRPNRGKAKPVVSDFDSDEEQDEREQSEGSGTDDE

Cn1c(=O)n(C2CCC(=O)NC2=O)c2ccc(CCCCCCCCc3cccc(CN4CCN(c5cc(-c6ccccc6O)nnc5N)CC4)c3)cc21 (centres unmarked) [I-152, 3-(5-(8-(3-((4-(3-amino-6-(2-hydroxyphenyl)pyridazin-4-yl)piperazin-1-yl)methyl)phenyl)octyl)-3-methyl-2-oxo-2,3-dihydro-1H-benzo[d]imidazol-1-yl) piperidine-2,6-dione]
Dmax: < 50%
DC50: > 1000 nM

Cn1c(=O)n(C2CCC(=O)NC2=O)c2ccc(CCCOCCCN3CCN(Cc4ccc(-c5cc(-c6ccccc6O)nnc5N)cc4)CC3)cc21 (centres unmarked) [I-153]
Dmax: 50 to 70%
DC50: < 100 nM

Cn1c(=O)n(C2CCC(=O)NC2=O)c2ccc(CCCCN3CCN(Cc4ccc(-c5cc(-c6ccccc6O)nnc5N)cc4)CC3)cc21 (centres unmarked) [I-154]
Dmax: < 50%
DC50: > 1000 nM

Cn1c(=O)n(C2CCC(=O)NC2=O)c2cccc(CCCOCCCCN3CCN(Cc4ccc(-c5cc(-c6ccccc6O)nnc5N)cc4)CC3)c21 (centres unmarked) [I-155]
Dmax: 50 to 70%
DC50: 100 to 500 nM

Cn1c(=O)n(C2CCC(=O)NC2=O)c2ccc(CN3CC(OCCCN4CCN(Cc5ccc(-c6cc(-c7ccccc7O)nnc6N)cc5)CC4)C3)cc21 (centres unmarked) [I-156]
Dmax: 50 to 70%
DC50: > 1000 nM

Cn1c(=O)n(C2CCC(=O)NC2=O)c2ccc(CN3CC[C@@H](OCCCN4CCN(Cc5ccc(-c6cc(-c7ccccc7O)nnc6N)cc5)CC4)C3)cc21 (some centres unmarked) [I-157]
Dmax: 70 to 90%
DC50: 100 to 500 nM

Cn1c(=O)n(C2CCC(=O)NC2=O)c2ccc(CN3CCC(OCCCN4CCN(Cc5ccc(-c6cc(-c7ccccc7O)nnc6N)cc5)CC4)CC3)cc21 (centres unmarked) [I-158]
Dmax: 70 to 90%
DC50: 100 to 500 nM

CN(CCCc1ccc2c(c1)n(C)c(=O)n2C1CCC(=O)NC1=O)Cc1ccc(N2CCN(c3cc(-c4ccccc4O)nnc3N)CC2)cc1 (centres unmarked) [I-159, 3-(5-(3-((4-(4-(3-amino-6-(2-hydroxyphenyl)pyridazin-4-yl)piperazin-1-yl)benzyl)(methyl)amino)propyl)-3-methyl-2-oxo-2,3-dihydro-1H-benzo[d]imidazol-1-yl)piperidine-2,6-dione]
Dmax: < 50%
DC50: > 1000 nM

CN1C(=O)CCC(n2c(=O)n(C)c3cc(CCCOCCCCN4CCN(Cc5ccc(-c6cc(-c7ccccc7O)nnc6N)cc5)CC4)ccc32)C1=O (centres unmarked) [I-160]
Dmax: < 50%
DC50: > 1000 nM

CN(CCCc1cnc(N2C3CCC2CN(c2cc(-c4ccccc4O)nnc2N)C3)nc1)CCCc1ccc2c(c1)n(C)c(=O)n2C1CCC(=O)NC1=O (centres unmarked) [I-161]
Dmax: > 90%
DC50: < 100 nM

Cn1c(=O)n(C2CCC(=O)NC2=O)c2ccc(CN3CCN(Cc4cnc(N5C6CCC5CN(c5cc(-c7ccccc7O)nnc5N)C6)nc4)CC3)cc21 (centres unmarked) [I-163]
Dmax: < 50%
DC50: > 1000 nM

CN(Cc1ccc2c(c1)n(C)c(=O)n2C1CCC(=O)NC1=O)C1CCN(Cc2cnc(N3C4CCC3CN(c3cc(-c5ccccc5O)nnc3N)C4)nc2)CC1 (centres unmarked) [I-164, 3-(5-(((1-((2-(3-(3-amino-6-(2-hydroxyphenyl)pyridazin-4-yl)-3,8-diazabicyclo[3.2.1]octan-8-yl)pyrimidin-5-yl)methyl)piperidin-4-yl)(methyl)amino)methyl)-3-methyl-2-oxo-2,3-dihydro-1H-benzo[d]imidazol-1-yl)piperidine-2,6-dione hydrogen chloride]
Dmax: > 90%
DC50: < 100 nM

Cn1c(=O)n(C2CCC(=O)NC2=O)c2ccc(CCN3CCN(Cc4cnc(N5C6CCC5CN(c5cc(-c7ccccc7O)nnc5N)C6)nc4)CC3)cc21 (centres unmarked) [I-165]
Dmax: > 90%
DC50: < 100 nM

Cn1c(=O)n(C2CCC(=O)NC2=O)c2ccc(CN3CC4(CCN(Cc5cnc(N6C7CCC6CN(c6cc(-c8ccccc8O)nnc6N)C7)nc5)CC4)C3)cc21 (centres unmarked) [I-166]
Dmax: > 90%
DC50: < 100 nM

Cn1c(=O)n(C2CCC(=O)NC2=O)c2ccc(CCCN3CCC(c4cnc(N5C6CCC5CN(c5cc(-c7ccccc7O)nnc5N)C6)nc4)CC3)cc21 (centres unmarked) [I-167, 3-[5-[3-[4-[2-[3-[3-amino-6-(2-hydroxyphenyl)pyridazin-4-yl]-3,8-diazabicyclo[3.2.1]octan-8-yl]pyrimidin-5-yl]-1-piperidyl]propyl]-3-methyl-2-oxo-benzimidazol-1-yl]piperidine-2,6-dione]
Dmax: > 90%
DC50: < 100 nM

Cn1c(=O)n(C2CCC(=O)NC2=O)c2cccc(CN3CCCC(n4cc(-c5cc(-c6ccccc6O)nnc5N)cn4)C3)c21 (centres unmarked) [I-168]
Dmax: 50 to 70%
DC50: 100 to 500 nM

Cn1c(=O)n(C2CCC(=O)NC2=O)c2cccc(CCCN3CCCC(n4cc(-c5cc(-c6ccccc6O)nnc5N)cn4)C3)c21 (centres unmarked) [I-169, 3-(4-(3-(3-(4-(3-amino-6-(2-hydroxyphenyl)pyridazin-4-yl)-1H-pyrazol-1-yl)piperidin-1-yl)propyl)-3-methyl-2-oxo-2,3-dihydro-1H-benzo[d]imidazol-1-yl)piperidine-2,6-dione]
Dmax: > 90%
DC50: < 100 nM

Cn1c(=O)n(C2CCC(=O)NC2=O)c2cccc(CCCCCN3CCCC(n4cc(-c5cc(-c6ccccc6O)nnc5N)cn4)C3)c21 (centres unmarked) [I-170]
Dmax: 70 to 90%
DC50: < 100 nM

Cn1c(=O)n(C2CCC(=O)NC2=O)c2cccc(CCCCCCCN3CCCC(n4cc(-c5cc(-c6ccccc6O)nnc5N)cn4)C3)c21 (centres unmarked) [I-171]
Dmax: 50 to 70%
DC50: > 1000 nM

Cn1c(=O)n(C2CCC(=O)NC2=O)c2cccc(CN3CCC(n4cc(-c5cc(-c6ccccc6O)nnc5N)cn4)CC3)c21 (centres unmarked) [I-173]
Dmax: < 50%
DC50: > 1000 nM

Cn1c(=O)n(C2CCC(=O)NC2=O)c2cccc(CCCN3CCC(n4cc(-c5cc(-c6ccccc6O)nnc5N)cn4)CC3)c21 (centres unmarked) [I-174, 3-[4-[3-[4-[4-[3-amino-6-(2-hydroxyphenyl)pyridazin-4-yl]pyrazol-1-yl]-1-piperidyl]propyl]-3-methyl-2-oxo-benzimidazol-1-yl]piperidine-2,6-dione]
Dmax: > 90%
DC50: < 100 nM

Cn1c(=O)n(C2CCC(=O)NC2=O)c2cccc(CCCCCN3CCC(n4cc(-c5cc(-c6ccccc6O)nnc5N)cn4)CC3)c21 (centres unmarked) [I-175]
Dmax: > 90%
DC50: < 100 nM

Cn1c(=O)n(C2CCC(=O)NC2=O)c2cccc(CCCCCCCN3CCC(n4cc(-c5cc(-c6ccccc6O)nnc5N)cn4)CC3)c21 (centres unmarked) [I-176]
Dmax: 70 to 90%
DC50: < 100 nM

Cn1c(=O)n(C2CCC(=O)NC2=O)c2ccc(CN3CCCC(n4cc(-c5cc(-c6ccccc6O)nnc5N)cn4)C3)cc21 (centres unmarked) [I-177]
Dmax: 70 to 90%
DC50: < 100 nM

Cn1c(=O)n(C2CCC(=O)NC2=O)c2ccc(CCCN3CCCC(n4cc(-c5cc(-c6ccccc6O)nnc5N)cn4)C3)cc21 (centres unmarked) [I-178]
Dmax: 70 to 90%
DC50: < 100 nM

Cn1c(=O)n(C2CCC(=O)NC2=O)c2ccc(CCCCCN3CCCC(n4cc(-c5cc(-c6ccccc6O)nnc5N)cn4)C3)cc21 (centres unmarked) [I-179]
Dmax: 50 to 70%
DC50: 100 to 500 nM

Cn1c(=O)n(C2CCC(=O)NC2=O)c2ccc(CCCCCCCN3CCCC(n4cc(-c5cc(-c6ccccc6O)nnc5N)cn4)C3)cc21 (centres unmarked) [I-180]
Dmax: < 50%
DC50: > 1000 nM

Cn1c(=O)n(C2CCC(=O)NC2=O)c2ccc(CN3CCC(n4cc(-c5cc(-c6ccccc6O)nnc5N)cn4)CC3)cc21 (centres unmarked) [I-181]
Dmax: < 50%
DC50: > 1000 nM

Cn1c(=O)n(C2CCC(=O)NC2=O)c2ccc(CCCN3CCC(n4cc(-c5cc(-c6ccccc6O)nnc5N)cn4)CC3)cc21 (centres unmarked) [I-182]
Dmax: 50 to 70%
DC50: 100 to 500 nM

Cn1c(=O)n(C2CCC(=O)NC2=O)c2ccc(CCCCCN3CCC(n4cc(-c5cc(-c6ccccc6O)nnc5N)cn4)CC3)cc21 (centres unmarked) [I-183]
Dmax: 70 to 90%
DC50: < 100 nM

Cn1c(=O)n(C2CCC(=O)NC2=O)c2ccc(CCCCCCCN3CCC(n4cc(-c5cc(-c6ccccc6O)nnc5N)cn4)CC3)cc21 (centres unmarked) [I-184]
Dmax: < 50%
DC50: > 1000 nM

Cn1c(=O)n(C2CCC(=O)NC2=O)c2cccc(CCCCCCCCN3CCN(c4cc(-c5ccccc5O)nnc4N)CC3)c21 (centres unmarked) [I-185]
Dmax: < 50%
DC50: > 1000 nM

Cn1c(=O)n(C2CCC(=O)NC2=O)c2ccc(CCc3cnc(N4C5CCC4CN(c4cc(-c6ccccc6O)nnc4N)C5)nc3)cc21 (centres unmarked) [I-186, 3-[5-[2-[2-[3-[3-amino-6-(2-hydroxyphenyl)pyridazin-4-yl]-3,8-diazabicyclo[3.2.1]octan-8-yl]pyrimidin-5-yl]ethyl]-3-methyl-2-oxo-benzimidazol-1-yl]piperidine-2,6-dione]
Dmax: 50 to 70%
DC50: 100 to 500 nM

CN1C(=O)CCC(n2c(=O)n(C)c3cc(CCCCCCCc4cnc(N5C6CCC5CN(c5cc(-c7ccccc7O)nnc5N)C6)nc4)ccc32)C1=O (centres unmarked) [I-187]
Dmax: < 50%
DC50: > 1000 nM

Cn1c(=O)n(C2CCC(=O)NC2=O)c2cccc(CCCN3CCC[C@@H](Cn4cc(-c5cc(-c6ccccc6O)nnc5N)cn4)C3)c21 (some centres unmarked) [I-188]
Dmax: 70 to 90%
DC50: 100 to 500 nM

Cn1c(=O)n(C2CCC(=O)NC2=O)c2cccc(CCCCN3CCC[C@@H](Cn4cc(-c5cc(-c6ccccc6O)nnc5N)cn4)C3)c21 (some centres unmarked) [I-189]
Dmax: > 90%
DC50: < 100 nM

Cn1c(=O)n(C2CCC(=O)NC2=O)c2cccc(CCCCCN3CCC[C@@H](Cn4cc(-c5cc(-c6ccccc6O)nnc5N)cn4)C3)c21 (some centres unmarked) [I-190]
Dmax: 70 to 90%
DC50: 100 to 500 nM

Cn1c(=O)n(C2CCC(=O)NC2=O)c2ccc(CCCN3CCC[C@@H](Cn4cc(-c5cc(-c6ccccc6O)nnc5N)cn4)C3)cc21 (some centres unmarked) [I-191]
Dmax: 50 to 70%
DC50: 100 to 500 nM

Cn1c(=O)n(C2CCC(=O)NC2=O)c2ccc(CCCCN3CCC[C@@H](Cn4cc(-c5cc(-c6ccccc6O)nnc5N)cn4)C3)cc21 (some centres unmarked) [I-192]
Dmax: 50 to 70%
DC50: 100 to 500 nM

Cn1c(=O)n(C2CCC(=O)NC2=O)c2ccc(CCCCCN3CCC[C@@H](Cn4cc(-c5cc(-c6ccccc6O)nnc5N)cn4)C3)cc21 (stereo partly drawn) [I-193, 3-[5-[5-[(3R)-3-[[4-[3-amino-6-(2-hydroxyphenyl)pyridazin-4-yl]pyrazol-1-yl]methyl]-1-piperidyl]pentyl]-3-methyl-2-oxo-benzimidazol-1-yl]piperidine-2,6-dione]
Dmax: 50 to 70%
DC50: 501 to 1000 nM
